The results in this text go back to paper PMC7370999, “The Neighboring Subunit Is Engaged to Stabilize the Substrate in the Active Site of Plant Arginases” (Frontiers in Plant Science, 2020).

SMILES strings stand for the structures.

The target in experiment [1] is T1, AtARGAH1 (Arabidopsis thaliana, UniProt P46637).
T1 construct: gene ARGAH1; starts at codon 25 (signal peptide removed), ends at residue 342; N-terminal His6-tag cut by TEV (vector pMCSG68); E. coli BL21 Gold; hexamer, calculated 209 kDa
T1 sequence (P46637 25-342): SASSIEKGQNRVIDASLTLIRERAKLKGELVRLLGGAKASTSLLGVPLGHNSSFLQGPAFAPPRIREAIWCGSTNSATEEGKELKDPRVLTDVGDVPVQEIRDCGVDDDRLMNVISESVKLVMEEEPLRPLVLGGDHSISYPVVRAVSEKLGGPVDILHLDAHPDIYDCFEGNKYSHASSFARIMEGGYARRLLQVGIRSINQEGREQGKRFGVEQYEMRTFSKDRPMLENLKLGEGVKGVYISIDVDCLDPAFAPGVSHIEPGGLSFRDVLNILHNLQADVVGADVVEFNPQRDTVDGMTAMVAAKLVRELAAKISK
Briefly: turnover to ornithine during crystallization, seen in crystal structure. It counts as biochemical. The settings on record: 50 mM L-arginine in crystallization solution; Mn2+ enzyme.

The target of another experiment is T2, MtARGAH (Medicago truncatula, UniProt G7JFU5).
T2 construct: gene ARGAH; full-length, 338 residues incl. predicted 15-residue signal peptide; N-terminal His6-tag cut by TEV (vector pMCSG68); E. coli BL21 Gold; hexamer, theoretical 224 kDa
T2 sequence (G7JFU5 1-338): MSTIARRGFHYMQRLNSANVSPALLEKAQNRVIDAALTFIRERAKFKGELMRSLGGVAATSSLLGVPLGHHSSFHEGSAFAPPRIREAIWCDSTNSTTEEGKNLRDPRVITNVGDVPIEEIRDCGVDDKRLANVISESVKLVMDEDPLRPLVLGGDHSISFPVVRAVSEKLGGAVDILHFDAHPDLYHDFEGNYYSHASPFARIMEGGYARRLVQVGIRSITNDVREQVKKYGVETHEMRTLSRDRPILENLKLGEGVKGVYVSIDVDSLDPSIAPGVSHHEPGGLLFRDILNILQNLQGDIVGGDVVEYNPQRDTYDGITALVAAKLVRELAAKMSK
Described as above. It counts as biochemical. The settings on record: 50 mM L-arginine in cocrystallization; Mn2+ enzyme.

The target in experiment [2] is T1, AtARGAH1. The experiment in a line: X-ray crystal structure, […] A. As to conditions: product of arginine hydrolysis before crystal growth (50 mM L-arginine, 50 mM L-glutamic acid); binuclear Mn2+; active site, completed by loop L2* of neighbouring subunit. The experiment is classed as binding.

In the case of `N=C(N)NCCC[C@H](N)C(=O)O` [L-arginine], the “turnover to ornithine during crystallization, seen in crystal structure” value at AtARGAH1 [1] and at MtARGAH was “obtained as a result of in vitro arginine hydrolysis” each time.

Regarding `NCCC[C@H](N)C(=O)O` [ornithine], on AtARGAH1 [2], the “X-ray crystal structure, 2.25 A” value was “Structures of AtARGAH1-ORN and MtARGAH-ORN with the reaction product, ornithine, were obtained”.
